Reference: patent publication US9988603B2, “Large scale generation of functional megakaryocytes and platelets from human embryonic stem cells under stromal-free conditions” (Stem Cell & Regenerative Medicine International, priority 2009, dated 2018)

B1: BMP4: previously reported megakaryocyte promoting factor (protein, UniProt P12644 293-408, looked up)
Bone morphogenetic protein 4: SPKHHSQRARKKNKNCRRHSLYVDFSDVGWNDWIVAPPGYQAFYCHGDCPFPLADHLNSTNHAIVQTLVNSVNSSIPKACCVPTELSAISMLYLDEYDKVVLKNYQEMVVEGCGCR
B2: IL11: cytokine reported to enhance expansion and maturation of megakaryocytes (protein, UniProt P20809 22-199, looked up)
Interleukin-11: PGPPPGPPRVSPDPRAELDSTVLLTRSLLADTRQLAAQLRDKFPADGDHNLDSLPTLAMSAGALGALQLPGVLTRLRADLLSYLRHVQWLRRAGGSSLKTLEPELGTLQARLDRLLRRLQLLMSRLALPQPPPDPPAPPLAPPSSAWGGIRAAHAILGGLHLTLDWAVRGLLLLKTRL

Columns and labels:
Assay type in all cases: cell-based, human
[1] = system: CD41a+ megakaryocytes from hESC derived BCs; experiment: Megakaryocyte (MK) differentiation/expansion culture from hESC derived blast cells, CD41a+ cell count; conditions: for yields / expansion of CD41a+ megakaryocytes: serum-free Stemline II MK culture of day 6 to 8 BCs, factors compared to TPO and SCF only, 4 day liquid culture
Experimental: BCs from day 6 to 8 blast cultures were purified and plated (1 to 5×10^5/ml) in Stemline II media supplemented with 50 ng/ml TPO, 20 ng/ml SCF and other cytokines to induce BC differentiation toward MKs. Half of the MK culture media was replaced with fresh media every 2 or 3 days.
In order to further direct the differentiation of megakaryocytes, day 6 to day 8 BCs from methylcellulose semi-solid cultures were harvested and then resuspended in serum-free media, i.e., Stemline II supplemented with cytokines for MK culture. The cell count of CD41a+ cells was used as readout to determine the expansion megakaryocytes during the suspension culture, which was calculated by multiplying the percentage of CD41a+(FACS) and total live cell count (Trypan blue exclusion). […] A panel of cytokines and factors were also tested in order to achieve high purity and the total yield of megakaryocytes from BCs. These factors including IL9 and BMP4 were previously reported as megakaryocyte promoting factors in other systems^21:22.
Certain factors, however, did slightly increase the percentage of CD41+ cells (not shown).

[2] = system: hESC-PLTs; experiment: CD41a/CD42b expression on hESC-PLTs generated under feeder-free conditions (FACS); conditions: GM6001 100 μM during late stage of differentiation
Experimental: To examine whether functional platelets were generated under feeder-free conditions, the inventors examined CD41a/CD42b expression on hESC-derived platelets (hESC-PLTs) by FACS analyses. […] However, less than 5% of these hESC-PLTs were CD42b positive. […] Supplement of GM6001 (100 μM) during late stage of human ESC-PLTs differentiation increased CD41a and CD42b double positive hESC-PLTs to about 15%. The function of feeder-free generated hESC-PLTs was assessed by integrin dependent spreading assay on immobilized fibrinogen and vWF. Anti-human CD41a antibody and DAPI staining were used to identify platelets.
Hemangioblast/BC generation from hESC lines (HuES-3, H7 [WA07], MA01, and MA09) was performed as previously reported^17:20. BCs from day 6 to 8 cultures were purified and plated (1 to 5×10^5/ml) in Stemline II media supplemented with 50 ng/ml TPO, 20 ng/ml SCF and 20 ng/ml IL-11 (Peprotech) to induce BC differentiation toward MKs. Half of the MK culture media was replaced with fresh media every 2 or 3 days. […]
Cells from blast cultures or MK cultures are monitored routinely by flow cytometry analyses on FACSCalibur (Becton Dickinson) or Accuri C6 Cytometer (Accuri Cytometers). […] The samples were then analyzed with FACSCalibur, and data analyzed using Cellquest or Flowjo software. […] Cellular DNA content was analyzed on an Accuri C6 cytometer.

[3] = system: hESC derived blast cells (BCs); experiment: Blast culture, percentage of CD41a+ cells by FACS; conditions: for percentage of CD41a+ cells at the end of blast culture: TPO 100 ng/ml and SCF 50 ng/ml together, second phase of EB formation and blast colony growth
Experimental: The procedure for EB formation and BC generation were performed as previously reported^17:19. In brief, hESCs at 70% confluency were dissociated by 0.05% trypsin and plated in Ultra-Low dishes (Corning, N.Y.) with Stemline II (Sigma) medium supplemented with BMP-4, VEGF (50 ng/ml). Half of the medium was replaced after 48 hours with fresh medium containing the same cytokines plus bFGF 20 ng/ml, SCF, Flt3 ligand (FL) and Tpo (50 ng/ml each, R&D System). On day 4, EBs were collected and dissociated by 0.05% trypsin. Single-cell suspensions were obtained by passing the cells through 22-gauge needle and through a 40 μm cell strainer, collected by centrifugation, and resuspended in Stemline II media. Live cells were counted by trypan blue exclusion, and 1 to 2×10^5/ml were mixed with blast colony growth medium (BGM) as previously described, and plated in Ultra-Low dishes. Blast colonies were observed 3-4 days after plating, followed by rapid expansion.
Cells from blast cultures or megakaryocyte cultures are monitored routinely by flow cytometry analyses on FACS Caliber. Fluorochrome conjugated antibodies for lineage markers, CD41a, CD42a, CD42b and CD235a (BD Biosciences) were used to characterize the megakaryocyte and erythroid lineages. Antibodies were freshly prepared (1:100 dilution for CD42a and CD42b antibodies; 1:250 dilution for CD41a antibody; 1:2000 for CD235a antibody) in PBS with 5% new born calf serum. Typically 1 to 2×10^5 cells were used for antibody labeling. Cells were stained in 100 μl antibody cocktail for 1 hour on ice, then washed twice with buffer, and resuspended in 250 μl buffer supplemented with 1 μg/ml propidium iodide. To detect the expression level of HLA-ABC, platelets were incubated with a fluorescein isothiocyanate (FITC)-conjugated antihuman HLA-ABC antibody or FITC-conjugated mouse immunoglobulin G (IgG) as a control. The samples were then analyzed using a flow cytometer (FACSCalibur, Becton Dickinson), and data were analyzed using Cellquest or Flowjo software. Cell sorting was performed on BD FACS Aria system at UMASS Medical School Core Facility. […]

[4] = system: platelet integrin receptor; experiment: Platelet spreading on immobilized fibrinogen and vWF; conditions: control plasma platelets and ES-PLTs on fibrinogen, stimulated with agonist
Experimental: Chamber slides with microtiter wells (Nalgen Nunc, Rochester, N.Y.) were coated with […] fibrinogen (Sigma) in 0.1M NaHCO3 (pH 8.3) at 4° C. overnight. Washed human peripheral platelets or hESC-platelets (1×10^7/mL) were allowed to adhere and spread on fibrinogen-coated wells at 37° C. for 90 minutes. In some samples, platelets were preincubated with an integrin antagonist, RGDS peptide, for 5 minutes before loading. In other samples, platelets were mixed with ADP (10 μM) or thrombin (1 U/ml) (Sigma-Aldrich, St Louis, Mo.), and immediately loaded on to fibrinogen-coated wells. […] Adherent platelets were viewed with an Olympus BX51 fluorescence microscope (MVI, Avon, Mass.) using a PlanApo lens at 100×/1.40 oil objective. […]
Integrin outside-in signaling functional property in ES-PLTs was further assessed by spreading assay on immobilized fibrinogen on glass slides. […]
Chamber slides with microtiter wells (Nalgen Nunc, Rochester, N.Y.) were coated with 100 μg/mL fibrinogen or vWF ([…]) (Sigma-Aldrich, St Louis, Mo.) in 0.1M NaHCO3 (pH 8.3) at 4° C. overnight. […] Adherent platelets were viewed with an Olympus BX51 fluorescence microscope using a PlanApo lens at 100×/1.40 oil objective. […]

Row | Molecule | yields / expansion of CD41a+ megakaryocytes [1] | further results
1 | bFGF: growth factor tested in MK culture | slightly increased | –
2 | CNC(=O)[C@H](Cc1c[nH]c2ccccc12)NC(=O)[C@@H](CC(=O)NO)CC(C)C [GM6001] | – | CD41a and CD42b double positive hESC-PLTs [2]: about 15%
3 | C[C@@H](N)[C@H]1CC[C@H](C(=O)Nc2ccncc2)CC1 [Y27632] | – | CD41+ cell count at the end of 4 day culture ([1]; 10 μM during 4 day MK culture): reduced; percentage of polyploid cells ([1]; 10 μM during 4 day MK culture): dramatically increased
4 | SCF: cytokine in MK culture media | significantly increased | percentage of CD41a+ cells at the end of blast culture [3]: increased
5 | IL9: previously reported megakaryocyte promoting factor | did not show obvious effects | –
6 | thrombin | – | lamellipodia and actin stress fiber formation [4]: enhanced
7 | VEGF | slightly increased | –
8 | Nc1ncnc2c1ncn2[C@@H]1O[C@H](COP(=O)(O)OP(=O)(O)O)[C@@H](O)[C@H]1O [ADP] | – | lamellipodia and actin stress fiber formation [4]: enhanced
9 | IL 6: cytokine tested in MK culture | slightly increased | –
10 | TPO: cytokine in MK culture media | not sufficient | percentage of CD41a+ cells at the end of blast culture [3]: increased
11 | B1 | did not show obvious effects | –
12 | B2 | slightly increased | ratio of CD41a+ cells in day 6 to 8 blast cultures ([3]; IL-11 20 ng/ml in BGM medium): further increased
